Values quoted from earlier work, collected in patent US20230416754A1, “SINA MOLECULES, METHODS OF PRODUCTION AND USES THEREOF” (PHYZAT BIOPHARMACEUTICALS, LDA, priority 2020, published 2023).
Like-named read-outs stand apart in the source and are kept apart here.

Test system: mice

Q: For CC(C)(C)NC[C@H](O)COc1nsnc1N1CCOCC1 [Timolol, timolol], which IOP (reserpine-treated animals) is on record?
A: The IOP was “did not significantly affect IOP”.

Q: What about the IOP (saline control treated mice) of the same compound?
A: Its IOP is “significantly reduced IOP”.
